Measurements: patent US20220372040A1, “METTL3 MODULATORS” (Accent Therapeutics, Inc., priority 2020, published 2022)
Where two headings read alike, the source gives them in different places.

What was measured:
METTL3/METTL14 = METTL3/METTL14 (Homo sapiens, UniProt Q86U44); test: METTL3-14 standard enzyme assay (3H-SAM flashplate scintillation); format: biochemical; conditions: METTL3/METTL14 2.5 nM, RNA 100 nM, 3H-SAM 100 nM, 30 min
Summary of the method: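 METTL3/METTL14 (2.5 nM final) preincubated 5 min with compound in 20 mM HEPES pH 7.5, 50 mM KCl, 250 μM MgCl2, 1 mM DTT, ambient temperature; started with 100 nM 3′-biotinylated RNA (UCUGGACUAAA) and 100 nM 3H-SAM. After 30 min, quenched with 15 μM cold SAM; methylated RNA captured on streptavidin flashplates and counted by scintillation.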

PRMT5-MEP50 = PRMT5-MEP50 (Homo sapiens, UniProt O14744); test: PRMT5 assay (3H-SAM flashplate scintillation); format: biochemical; conditions: PRMT5-MEP50 2.5 nM, histone H4 peptide 100 nM, 3H-SAM 250 nM, 60 min
Sequence of PRMT5-MEP50 (O14744 whole entry): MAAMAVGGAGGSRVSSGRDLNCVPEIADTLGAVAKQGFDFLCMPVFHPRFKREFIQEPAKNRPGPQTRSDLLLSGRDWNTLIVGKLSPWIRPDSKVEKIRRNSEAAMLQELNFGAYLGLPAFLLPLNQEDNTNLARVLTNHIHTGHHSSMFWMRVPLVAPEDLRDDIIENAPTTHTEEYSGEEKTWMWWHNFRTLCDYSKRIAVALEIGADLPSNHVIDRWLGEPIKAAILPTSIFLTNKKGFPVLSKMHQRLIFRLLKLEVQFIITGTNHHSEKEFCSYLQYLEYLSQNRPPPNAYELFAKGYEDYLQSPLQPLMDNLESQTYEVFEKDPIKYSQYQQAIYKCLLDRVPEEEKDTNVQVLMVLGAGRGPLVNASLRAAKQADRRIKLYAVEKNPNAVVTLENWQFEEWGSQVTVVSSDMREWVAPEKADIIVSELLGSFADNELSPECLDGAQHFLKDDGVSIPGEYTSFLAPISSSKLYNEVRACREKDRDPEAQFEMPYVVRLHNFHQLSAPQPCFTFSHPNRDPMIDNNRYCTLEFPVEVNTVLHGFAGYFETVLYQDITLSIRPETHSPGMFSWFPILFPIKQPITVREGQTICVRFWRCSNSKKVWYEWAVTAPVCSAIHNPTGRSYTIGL
Sequence of PRMT5-MEP50 (Q9BQA1 whole entry partner): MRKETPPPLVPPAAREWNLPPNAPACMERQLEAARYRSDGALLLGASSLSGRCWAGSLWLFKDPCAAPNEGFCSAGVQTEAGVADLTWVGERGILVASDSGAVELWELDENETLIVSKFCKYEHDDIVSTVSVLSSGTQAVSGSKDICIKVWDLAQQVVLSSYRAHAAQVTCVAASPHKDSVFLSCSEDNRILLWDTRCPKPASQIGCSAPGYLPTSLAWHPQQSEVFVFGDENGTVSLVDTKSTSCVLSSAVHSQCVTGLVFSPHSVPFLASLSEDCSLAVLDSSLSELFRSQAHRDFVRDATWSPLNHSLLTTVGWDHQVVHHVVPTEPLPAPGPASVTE
Summary of the method: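 PRMT5-MEP50 (2.5 nM final) preincubated 5 min with compound, then reacted 60 min at ambient temperature with 100 nM biotinylated N-acetyl histone H4 peptide and 250 nM 3H-SAM in 20 mM Tris-HCl pH 8.0, 1 mM DTT, 0.01% Tween. Quenched with 15 μM cold SAM; methylated peptide captured on streptavidin flashplates, scintillation counted.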

METTL1/WDR4 = METTL1/WDR4 (Homo sapiens, UniProt Q9UBP6); test: METTL1 assay (3H-SAM flashplate scintillation); format: biochemical
Sequence of METTL1/WDR4 (Q9UBP6 whole entry, species assumed): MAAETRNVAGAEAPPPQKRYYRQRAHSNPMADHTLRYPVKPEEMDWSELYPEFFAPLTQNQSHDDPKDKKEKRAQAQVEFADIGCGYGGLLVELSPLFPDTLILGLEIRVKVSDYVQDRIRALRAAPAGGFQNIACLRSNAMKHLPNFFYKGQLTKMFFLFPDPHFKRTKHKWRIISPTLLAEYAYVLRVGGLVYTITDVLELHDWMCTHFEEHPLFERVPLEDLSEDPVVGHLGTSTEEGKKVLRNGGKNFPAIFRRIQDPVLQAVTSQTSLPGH
Sequence of METTL1/WDR4 (P57081 whole entry partner, species assumed): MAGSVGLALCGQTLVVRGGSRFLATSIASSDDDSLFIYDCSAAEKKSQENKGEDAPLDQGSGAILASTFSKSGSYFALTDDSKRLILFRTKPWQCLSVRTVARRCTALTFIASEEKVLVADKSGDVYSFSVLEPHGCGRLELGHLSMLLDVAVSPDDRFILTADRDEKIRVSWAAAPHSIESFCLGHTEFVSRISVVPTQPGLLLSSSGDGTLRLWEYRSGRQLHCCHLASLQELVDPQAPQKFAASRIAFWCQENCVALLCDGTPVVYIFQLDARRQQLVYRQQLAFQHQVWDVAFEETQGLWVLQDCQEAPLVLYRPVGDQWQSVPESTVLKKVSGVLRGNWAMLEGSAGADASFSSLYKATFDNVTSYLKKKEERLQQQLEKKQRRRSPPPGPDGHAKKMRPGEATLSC
Summary of the method: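 Radiometric methyltransfer by METTL1/WDR4 (6.25 nM f.c., 5 min preincubation) at ambient temperature in HEPES pH 7.5, KCl, MgCl2, DTT; started with 25 nM 3′-biotinylated RNA and 60 nM 3H-SAM, run 20 min, quenched with 15 μM cold SAM. Product captured on streptavidin flashplates (2 h, 25° C), counted by scintillation.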

[1] = system: m^6 A in cellular mRNA of MOLM-13 cells; test: m^6 A-mRNA LC-MS/MS assay (m^6 A cellular assay); format: cell-based; conditions: Homo sapiens, 24 hours incubation, LC-MS/MS of m^6 A/A in mRNA
Protocol: m^6 A-mRNA LC-MS/MS Assay
5×10^6 MOLM-13 (DSMZ) cells were seeded into 10 cm dishes in RPMI 1640 media containing 10% fetal bovine serum and placed in a humidified tissue culture incubator at 37° C. overnight. Compounds were resuspended in 100% DMSO and dosed into each dish at a fixed concentration to comprise an 8-point dose response with a 4-fold serial dilution ranging from 25 μM to 1.5 nM in 0.25% DMSO final and allowed to incubate for 24 hours in a humidified tissue culture incubator at 37° C. Cells were harvested by centrifugation followed by mRNA extraction using DTRECT Dynabeads mRNA DTRECT kit (Life Technologies). mRNA was quantified on NanoDrop spectrophotometer (Thermo Fisher Scientific) and digested into single nucleosides using Nucleoside Digestion Mix (New England Biolabs). Nucleosides are quantified with retention time on a BEH […] column (Waters) and the nucleoside-to-base ion mass transition of 282.1-150.1 (m^6 A) and 268-136 (A) on an API 6500+ triple quadrupole mass spectrometer. Quantification is performed in comparison with the standard curve, obtained from pure nucleoside standards (Selleck Chemicals) running with the same batch of samples. Percentage m^6 A in cellular mRNA is calculated as 100*(m^6 A/A).

MOLM-13 cells [2] = test: MOLM-13 48 Hour cell proliferation assay (Cell Titer-Glo); format: cell-based; conditions: Homo sapiens
Protocol: MOLM-13 48 Hour Cell Proliferation Assay
MOLM-13 (DSMZ) cells were seeded at 1000 cells per well in a volume of 44 μL in a Falcon 384-well tissue culture treated clear bottom microplate in RPMI 1640 media containing 10% fetal bovine serum using a Multidrop Combi (ThermoFisher Scientific). Cells were incubated overnight at 37° C. in a humidified tissue culture incubator. The Mosquito® HTS Liquid Handler was used to make a compound/media intermediate plate by aliquoting […] of compound from the initial compound dilution plate (concentrations ranging from 10.0 mM to 38.0 nM in 100% DMSO) into a V bottom 384-well screen matrix plate containing 49 µL of media containing the appropriate serum (50-fold dilution, 2% DMSO). The Apricot liquid handling system was used to transfer […] compounds from the intermediate plate into the Falcon 384-well tissue culture plate containing 44 μL cells (10-point, 4-fold dilution spanning concentrations 25.0 μM to […], 0.25% DMSO final), and placed in a humidified tissue culture incubator at 37° C. After 48 hours, 25 μL of Cell Titer-Glo reagent (Promega) was added to each well using a Multidrop Combi. The plate was protected from light and placed on an IKA plate shaker for at 300 rpm for 10 minutes at room temperature. The plate was read on an EnVision plate reader (Perkin Elmer) using the Ultra Sensitive Luminescence protocol. Data analysis was performed by normalizing the raw luminescence units to an average of the positive control values for staurosporine (100% cell death) and the negative control values for DMSO (0% cell death). An IC50 was calculated using a 4-parameter logistic nonlinear regression model in GraphPad Prism.

MOLM-13 cells [3] = test: MOLM-13 96 Hour cell proliferation assay (Cell Titer-Glo); format: cell-based; conditions: Homo sapiens
Summary of the method: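 MOLM-13 cells were seeded at 600 cells/well in RPMI 1640 with 10% FBS, then incubated overnight. Compounds were added at 0.25% DMSO final for 96 h at 37° C, with CellTiter-Glo luminescence read-out. Values normalized to staurosporine (100% death) and DMSO (0%); IC50 from 4-parameter logistic fit.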

METTL16 = biological target: T1, METTL16 (Homo sapiens, UniProt Q86W50); test: METTL16 assay (3H-SAM flashplate scintillation); format: biochemical; conditions: METTL16 100 nM, RNA 50 nM, 3H-SAM 200 nM, SAM 800 nM, 20 min
T1 sequence (Q86W50 1-562): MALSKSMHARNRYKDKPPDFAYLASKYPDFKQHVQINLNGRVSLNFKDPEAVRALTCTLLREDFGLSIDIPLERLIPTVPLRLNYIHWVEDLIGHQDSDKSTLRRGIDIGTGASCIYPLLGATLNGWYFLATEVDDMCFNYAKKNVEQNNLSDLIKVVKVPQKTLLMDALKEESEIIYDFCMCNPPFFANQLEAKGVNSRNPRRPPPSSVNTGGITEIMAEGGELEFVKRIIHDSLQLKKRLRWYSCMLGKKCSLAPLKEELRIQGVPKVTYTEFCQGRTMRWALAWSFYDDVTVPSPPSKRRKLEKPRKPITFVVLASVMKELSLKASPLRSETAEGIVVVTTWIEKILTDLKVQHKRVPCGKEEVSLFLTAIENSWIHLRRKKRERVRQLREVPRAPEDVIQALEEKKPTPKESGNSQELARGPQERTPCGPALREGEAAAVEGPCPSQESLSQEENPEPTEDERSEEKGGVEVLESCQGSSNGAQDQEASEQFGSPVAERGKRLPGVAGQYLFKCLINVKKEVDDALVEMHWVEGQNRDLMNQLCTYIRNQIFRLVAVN
Summary of the method: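 Radiometric methyltransferase reaction at ambient temperature in 20 mM HEPES pH 7.5, 50 mM KCl, 1 mM DTT, with 100 nM enzyme preincubated 5 min with compound. It was started with 50 nM 3′-biotinylated RNA, 200 nM 3H-SAM plus 800 nM cold SAM, run 20 min, then quenched with excess cold SAM. Product was captured on streptavidin flashplates and scintillation-counted.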

[4] = METTL1/WDR4 6.25 nM, RNA 25 nM, 3H-SAM 60 nM, 20 min, read-out: METTL1 IC50

Sequence of METTL3/METTL14 (Q86U44 whole entry, species assumed): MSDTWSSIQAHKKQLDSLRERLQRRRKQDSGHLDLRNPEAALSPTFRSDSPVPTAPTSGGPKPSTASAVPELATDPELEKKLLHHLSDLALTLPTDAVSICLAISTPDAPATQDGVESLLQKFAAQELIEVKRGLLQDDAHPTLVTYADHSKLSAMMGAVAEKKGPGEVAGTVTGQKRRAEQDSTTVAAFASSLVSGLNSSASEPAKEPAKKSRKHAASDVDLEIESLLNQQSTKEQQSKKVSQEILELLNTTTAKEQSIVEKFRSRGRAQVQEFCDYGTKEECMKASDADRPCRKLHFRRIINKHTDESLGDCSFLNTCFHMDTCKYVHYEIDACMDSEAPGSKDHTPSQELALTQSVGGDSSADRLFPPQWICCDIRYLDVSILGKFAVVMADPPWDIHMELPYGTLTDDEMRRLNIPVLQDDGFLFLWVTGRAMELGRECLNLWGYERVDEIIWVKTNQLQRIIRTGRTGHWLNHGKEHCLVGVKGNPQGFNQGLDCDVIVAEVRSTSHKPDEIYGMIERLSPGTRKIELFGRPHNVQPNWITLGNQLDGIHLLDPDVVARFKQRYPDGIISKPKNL
Sequence of METTL3/METTL14 (Q9HCE5 whole entry partner, species assumed): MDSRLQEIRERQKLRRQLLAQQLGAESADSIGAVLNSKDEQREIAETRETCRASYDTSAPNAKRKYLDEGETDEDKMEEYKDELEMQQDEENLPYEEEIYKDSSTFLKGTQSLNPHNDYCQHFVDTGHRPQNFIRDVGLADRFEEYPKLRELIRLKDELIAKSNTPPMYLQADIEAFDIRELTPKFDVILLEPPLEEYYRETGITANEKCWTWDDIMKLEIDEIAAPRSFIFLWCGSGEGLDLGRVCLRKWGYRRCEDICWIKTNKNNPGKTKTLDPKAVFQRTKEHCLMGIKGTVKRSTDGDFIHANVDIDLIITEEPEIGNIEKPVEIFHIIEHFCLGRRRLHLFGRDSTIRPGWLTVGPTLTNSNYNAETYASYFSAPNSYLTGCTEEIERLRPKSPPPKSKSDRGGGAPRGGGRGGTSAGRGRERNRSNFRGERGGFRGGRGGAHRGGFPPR

Structure (SMILES) | IC50 (METTL3/METTL14) | IC50 (PRMT5-MEP50) | IC50 (METTL1/WDR4) | IC50 [1] | IC50 (MOLM-13 cells [2]) | IC50 (METTL1/WDR4; [4]) | IC50 (MOLM-13 cells [3]) | IC50 (METTL16)
CNc1ccc2ccc(CCc3cncc(-n4cc(-c5ccn(C)n5)c5c(N)ncnc54)c3)cc2n1 [Compound I-1, 7-(2-(5-(4-amino-5-(1-methyl-1H-pyrazol-3-yl)-7H-pyrrolo[2,3-d]pyrimidin-7-yl)pyridin-3-yl)ethyl)-N-methylquinolin-2-amine] | < 0.01 µM | > 1 µM | > 1 µM | < 1 µM | < 1 µM |  |  | 
CNc1ccc2ccc(OCc3cc(CO)cc(-n4ccc5c(N)ncnc54)c3)cc2n1 [Compound I-6] | < 0.01 µM | > 1 µM |  |  | ≥ 10 µM | > 1 µM | 1 to 10 µM | 
CCc1cc(NCCOC)c2ccc(OCc3cncc(-c4c[nH]c5c(N)ncnc45)c3)cc2n1 [Compound I-7] | < 0.01 µM | > 1 µM |  |  | ≥ 10 µM | > 1 µM |  | 
CNc1ccc2ccc(OCc3cc(CO)cc(-c4c[nH]c5c(N)ncnc45)c3)cc2n1 [Compound I-10] | < 0.01 µM | > 1 µM |  | ≥ 10 µM | ≥ 10 µM | > 1 µM |  | 
CCc1cc(N)c2ccc(OCc3cncc(-n4cc(C5CCCC5)c5c(N)ncnc54)c3)cc2n1 [Compound I-11] | < 0.01 µM | > 1 µM |  | 1 to 10 µM | < 1 µM | > 1 µM |  | 
CC(C)c1cc(N)c2ccc(OCc3cncc(-n4ccc5c(N)ncnc54)c3)cc2n1 [Compound I-12] | < 0.01 µM | > 1 µM |  |  | 1 to 10 µM | > 1 µM | 1 to 10 µM | 
CNc1ccc2ccc(OCc3cncc(-n4ccc5c(N)ncnc54)n3)cc2n1 [Compound I-14] | < 0.01 µM | > 1 µM |  | 1 to 10 µM | 1 to 10 µM | > 1 µM |  | 
CCc1cc(NCCN(C)C)c2ccc(OCc3cncc(-n4ccc5c(N)ncnc54)c3)cc2n1 [Compound I-15] | < 0.01 µM | > 1 µM |  |  | 1 to 10 µM | > 1 µM |  | 
CCc1cc(NCCOC)c2ccc(OCc3cncc(-n4ccc5c(N)ncnc54)c3)cc2n1 [Compound I-16] | < 0.01 µM | > 1 µM |  | 1 to 10 µM | 1 to 10 µM | > 1 µM |  | 
CNc1ccc2ccc(OCc3cncc(-n4cc(C)c5c(N)ncnc54)c3)cc2n1 [Compound I-17] | < 0.01 µM | > 1 µM |  | ≥ 10 µM | < 1 µM | > 1 µM |  | 
CNc1ccc2ccc(OCc3cncc(-c4cn(C5CCCC5)c5c(N)ncnc45)c3)cc2n1 [Compound I-18] | < 0.01 µM | > 1 µM |  | 1 to 10 µM | 1 to 10 µM | > 1 µM |  | 
CNc1ccc2ccc(OCc3cncc(-c4c(C)[nH]c5c(N)ncnc45)c3)cc2n1 [Compound I-25] | < 0.01 µM | > 1 µM |  | ≥ 10 µM | ≥ 10 µM |  |  | > 1 µM
Cc1cc(NCCN(C)C)c2ccc(OCc3cncc(-n4cc(Cl)c5c(N)ncnc54)c3)cc2n1 [Compound I-42] | 0.01 to 0.1 µM | > 1 µM |  |  | < 1 µM |  |  | > 1 µM
CCc1cc(N)c2ccc(OCc3cncc(-n4ccc5c(N)ncnc54)c3)cc2n1 [Compound I-45] | < 0.01 µM | > 1 µM |  | ≥ 10 µM | ≥ 10 µM |  |  | > 1 µM
CNc1ccc2ccc(OCc3cncc(-c4c[nH]c5c(N)ncnc45)c3)cc2n1 [Compound I-47, 7-[(5-{4-amino-5H-pyrrolo[3,2-d]pyrimidin-7-yl}pyridin-3-yl)methoxy]-N-methylquinolin-2-amine] | < 0.01 µM | > 1 µM |  | ≥ 10 µM | ≥ 10 µM |  |  | > 1 µM
CCNc1ccc2ccc(OCc3cncc(-n4cc(Cl)c5c(N)ncnc54)c3)cc2n1 [Compound I-59] | < 0.01 µM | > 1 µM |  | 1 to 10 µM | 1 to 10 µM |  |  | > 1 µM
CNc1ccc2ccc(OCc3cncc(-n4ccc5c(N)ncnc54)c3)cc2n1 [Compound I-60] | < 0.01 µM | > 1 µM |  | 1 to 10 µM | < 1 µM |  |  | > 1 µM
